According to ChEMBL document CHEMBL1127202, “Endothelin receptor ligands. replacement net approach to SAR determination of potent hexapeptides” (Bioorg Med Chem Lett, 1993):
Residues, ends and D or L forms follow the SMILES beside them.

Columns and labels:
Endothelin-1 receptor [1] = target: T1, Endothelin-1 receptor (Mus musculus, UniProt Q61614); test: Inhibition of [125I]ET1 binding to Endothelin A receptor of murine 3T3 cells; format: cell-based, NIH3T3
T1 sequence (Q61614 whole entry): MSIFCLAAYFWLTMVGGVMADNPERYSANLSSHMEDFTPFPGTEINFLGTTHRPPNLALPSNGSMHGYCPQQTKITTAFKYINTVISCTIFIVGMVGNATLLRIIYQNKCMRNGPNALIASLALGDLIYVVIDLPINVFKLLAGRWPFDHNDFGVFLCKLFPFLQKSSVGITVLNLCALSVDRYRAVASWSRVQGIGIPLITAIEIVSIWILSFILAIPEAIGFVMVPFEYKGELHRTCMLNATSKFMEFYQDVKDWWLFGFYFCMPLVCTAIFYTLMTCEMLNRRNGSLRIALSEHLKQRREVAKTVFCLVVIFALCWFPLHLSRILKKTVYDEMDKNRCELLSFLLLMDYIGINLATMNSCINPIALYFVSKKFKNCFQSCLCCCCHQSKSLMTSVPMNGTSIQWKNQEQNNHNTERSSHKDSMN

Endothelin-1 receptor [2] = target: T2, Endothelin-1 receptor (Homo sapiens, UniProt P25101); test: The inhibitory constant was evaluated against Endothelin A receptor
T2 sequence (P25101 whole entry): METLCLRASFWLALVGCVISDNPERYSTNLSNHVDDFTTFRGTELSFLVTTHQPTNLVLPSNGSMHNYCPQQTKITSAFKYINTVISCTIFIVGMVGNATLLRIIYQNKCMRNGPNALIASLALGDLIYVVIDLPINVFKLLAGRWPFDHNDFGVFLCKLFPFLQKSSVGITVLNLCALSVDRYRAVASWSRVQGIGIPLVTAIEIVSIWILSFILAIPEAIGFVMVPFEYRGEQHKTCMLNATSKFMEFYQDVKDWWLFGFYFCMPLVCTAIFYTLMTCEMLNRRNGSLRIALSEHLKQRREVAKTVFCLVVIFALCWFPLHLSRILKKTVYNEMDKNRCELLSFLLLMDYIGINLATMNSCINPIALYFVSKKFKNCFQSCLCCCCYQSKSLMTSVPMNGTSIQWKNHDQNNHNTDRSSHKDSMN

Endothelin-1 receptor [3] = target: T1, Endothelin-1 receptor; test: The compound was tested for the binding affinity against eEndothelin A receptor in murine 3T3 cells using [125I]ET1 as a radioligand; format: cell-based, NIH3T3

CC[C@H](C)[C@H](NC(=O)[C@H](CC(=O)O)NC(=O)[C@H](Cc1c[nH]c2ccccc12)NC(=O)[C@@H](Cc1ccccc1)NC(C)=O)C(=O)N[C@H](C(=O)N[C@@H](Cc1c[nH]c2ccccc12)C(=O)O)[C@@H](C)CC
IC50 (Endothelin-1 receptor [1]): 79 nM

CC[C@H](C)[C@H](NC(=O)[C@H](CC(=O)O)NC(=O)[C@H](Cc1ccc(O)cc1)NC(=O)[C@@H](Cc1ccccc1)NC(C)=O)C(=O)N[C@H](C(=O)N[C@@H](Cc1c[nH]c2ccccc12)C(=O)O)[C@@H](C)CC
IC50 (Endothelin-1 receptor [1]): 77 nM

CC[C@H](C)[C@H](NC(=O)[C@H](CC(=O)O)NC(=O)[C@H](CCCN)NC(=O)[C@@H](Cc1ccc(O)cc1)NC(C)=O)C(=O)N[C@H](C(=O)N[C@@H](Cc1c[nH]c2ccccc12)C(=O)O)[C@@H](C)CC
IC50 (Endothelin-1 receptor [1]): 26 nM
IC50 (Endothelin-1 receptor [2]): 400 nM

CC[C@H](C)[C@H](NC(=O)[C@H](CC(=O)O)NC(=O)CN(Cc1ccccc1)C(=O)[C@@H](Cc1ccccc1)NC(C)=O)C(=O)N[C@H](C(=O)N[C@@H](Cc1c[nH]c2ccccc12)C(=O)O)[C@@H](C)CC
IC50 (Endothelin-1 receptor [1]): 12 nM
IC50 (Endothelin-1 receptor [2]): 30 nM

CC[C@H](C)[C@H](NC(=O)[C@H](CC(=O)O)NC(=O)[C@H](CCCN)NC(=O)[C@@H](Cc1c[nH]c2ccccc12)NC(C)=O)C(=O)N[C@H](C(=O)N[C@@H](Cc1c[nH]c2ccccc12)C(=O)O)[C@@H](C)CC
IC50 (Endothelin-1 receptor [1]): 15 nM

CC[C@H](C)[C@H](NC(=O)[C@H](CC(=O)O)NC(=O)[C@H](CC(N)=O)NC(=O)[C@@H](Cc1ccccc1)NC(C)=O)C(=O)N[C@H](C(=O)N[C@@H](Cc1c[nH]c2ccccc12)C(=O)O)[C@@H](C)CC
IC50 (Endothelin-1 receptor [1]): 75 nM

CC[C@H](C)[C@@H](NC(=O)[C@@H](CC(=O)O)NC(=O)[C@H]1CCCN1C(=O)[C@@H](Cc1ccccc1)NC(C)=O)C(=O)N[C@@H](C(=O)N[C@H](Cc1c[nH]c2ccccc12)C(=O)O)[C@@H](C)CC
IC50 (Endothelin-1 receptor [1]; nih3t3): 45 nM
IC50 (Endothelin-1 receptor [2]): 15 nM

CC[C@H](C)[C@H](NC(=O)[C@H](CC(=O)O)NC(=O)[C@H](CCc1ccccc1)NC(=O)[C@@H](Cc1ccccc1)NC(C)=O)C(=O)N[C@H](C(=O)N[C@@H](Cc1c[nH]c2ccccc12)C(=O)O)[C@@H](C)CC
IC50 (Endothelin-1 receptor [1]): 70 nM

CC[C@H](C)[C@H](NC(=O)[C@H](CCc1ccccc1)NC(=O)[C@H](CC(=O)O)NC(=O)[C@H](CCCN)NC(=O)[C@@H](Cc1ccccc1)NC(C)=O)C(=O)N[C@@H](Cc1c[nH]c2ccccc12)C(=O)O
IC50 (Endothelin-1 receptor [1]): 114 nM

CC[C@H](C)[C@H](NC(=O)[C@H](CC(=O)O)NC(=O)[C@H](C)NC(=O)[C@@H](Cc1ccccc1)NC(C)=O)C(=O)N[C@H](C(=O)N[C@@H](Cc1c[nH]c2ccccc12)C(=O)O)[C@@H](C)CC (HELM PEPTIDE1{[ac].[dF].A.D.I.I.W}$$$$V2.0)
IC50 (Endothelin-1 receptor [1]): 57 nM

CC[C@H](C)[C@H](NC(=O)[C@H](CC(=O)O)NC(=O)[C@H](Cc1ccccc1)NC(=O)[C@@H](Cc1ccccc1)NC(C)=O)C(=O)N[C@H](C(=O)N[C@@H](Cc1c[nH]c2ccccc12)C(=O)O)[C@@H](C)CC (HELM PEPTIDE1{[ac].[dF].F.D.I.I.W}$$$$V2.0)
IC50 (Endothelin-1 receptor [1]): 270 nM

CC[C@H](C)[C@H](NC(=O)[C@H](CC(=O)O)NC(=O)[C@H](CCCN)NC(=O)[C@@H](Cc1ccccc1)NC(C)=O)C(=O)N[C@H](C(=O)N[C@@H](Cc1c[nH]c2ccccc12)C(=O)O)[C@@H](C)CC (HELM PEPTIDE1{[ac].[dF].[Orn].D.I.I.W}$$$$V2.0)
IC50 (Endothelin-1 receptor [3]): 230 nM

CC[C@H](C)[C@H](NC(=O)[C@H](CC(=O)O)NC(=O)[C@@H](Cc1ccccc1)NC(=O)[C@@H](Cc1ccccc1)NC(C)=O)C(=O)N[C@H](C(=O)N[C@@H](Cc1c[nH]c2ccccc12)C(=O)O)[C@@H](C)CC (HELM PEPTIDE1{[ac].[dF].[dF].D.I.I.W}$$$$V2.0)
IC50 (Endothelin-1 receptor [1]): 98 nM
